The source of these data is patent US20260294874A1, “COMPOSITIONS COMPRISING MODULATORS OF RIBONUCLEOPROTEIN GRANULE FORMATION AND DISSOLUTION AND METHODS OF USE THEREOF” (University of Virginia Patent Foundation, priority 2023, published 2026).

Assay [1] deals with stress granules (α-G3BP1) in HeLa cells. The assay is described as follows: Dose-dependent inhibition of induced stress granules in HeLa cells by immunofluorescence. The note with it: 2 h. The assay is classed as cell-based. The protocol:
FIGS. 15A-15C. […] (FIG. 15B) Box and whisker plot of the number of SGs per cell from immunofluorescence images of G3BP1+SuTEx fragment ligand treatments in [COMPOUND LEFT OUT]-stressed cells from FIG. 15A (“x” indicates the mean; the center line is the median). […] A two-sample Student's t-test was performed for statistical comparison. (FIG. 15C) The average number of SGs per cell from FIG. 15B was plotted as a function of HHS-166 concentrations from cellular treatments to estimate the EC50 (~8 μM) for [COMPOUND LEFT OUT]-induced SG inhibition in situ. Data shown are representative of n=2 biologically independent replicates.
Immunofluorescence. Immunofluorescence (IF) of HEK293T cells was performed as previously described in Ciancone et al., 2022. HeLa cells were seeded at 9.0×10^4 in a 24-well plate with 12-mm glass coverslips. The next day, the cells were treated with 25 μM SuTEx probe for 2 hours in DMEM medium without FBS. The cells were then treated with 75 μM NaAsO2 for 30 minutes and fixed with 3% paraformaldehyde in PBS for 15 minutes at room temperature (RT) and washed with PBS twice. The fixed cells were permeabilized with PBST (0.1% Triton X-100) for 15 minutes at room temperature and blocked with 5% goat serum in PBST for 30 minutes at RT. The cells were incubated with anti-G3BP1 antibody H-10 (Catalog No. sc-365338 at 1:200 dilution; Santa Cruz Biotechnology, Inc., Dallas, Texas, United States of America) for 2 hours at RT and washed with PBST (0.1% Tween-20) for 5 minutes three times. Next, cells were incubated with goat anti-mouse Alexa 594 antibody (Catalog No. 115-585-003 at 1:800 dilution; Jackson ImmunoResearch, West Grove, Pennsylvania, United States of America) for 30 minutes at RT. […] A CellProfiler pipeline was developed to quantify the number of stress granules under each condition. Briefly, cells were recognized as blue^+ (nuclei) red^+ (G3BP1) objects, and the red^+ granules that meet the shape and size threshold were identified and counted. Cells on the border of linages were excluded from the analysis for more accurate quantification.

The test system of assay [2] is G3BP1 Y40F-expressing G3BP KO cells. The assay is described as follows: SG formation in G3BP KO U20S cells rescued with G3BP1 Y40F. The assay is classed as cell-based. As to conditions: 25 μM, 2 h. The protocol: G3BP KO and rescue studies. U20S G3BP1/2 double knockout (G3BP KO) cell-line was a kind gift from the C. Brangwynne lab (Princeton University, Princeton, New Jersey, United States of America) and generated as previously described in Kedersha et al., 2016. G3BP KO cells were seeded at 9.0×10^4 in a 24-well plate with 12-mm glass coverslips. Next day, the cells were transfected with […] vectors with 1 μg/mL tetracycline and LIPOFECTAMINE™ 3000 brand transfection reagent according to the manufacturer's protocol (Thermo Fisher Scientific). 20 hours post-transfection, the cells were treated with 25 μM SuTEx probes for 2 hours in DMEM medium without FBS. The cells were then treated with 75 μM NaAsO2 for 30 minutes and fixed with 3% paraformaldehyde in PBS for 15 minutes at RT and washed with PBS twice. The same protocols for IF of HeLa cells and quantification of G3BP1-positive SGs described above were followed thereafter.
To determine whether the cell biological effects mediated by HHS-166 were Y40-dependent, we expressed recombinant G3BP1 WT or Y40 mutant in previously established G3BP1/2 double knockout U20S (G3BP KO) cells (Kedersha et al., 2016; Sanders et al., 2020) and evaluated the resulting effects on SG response to [COMPOUND LEFT OUT]. […]

Each structure is given as a SMILES string. Entries after “also recorded” stand apart in the source; their conditions may differ.

A word on the EC50: it is the midpoint of the concentration-response curve. For `COc1ccc(S(=O)(=O)n2cc(C3CCCCC3)nn2)cc1` [HHS-166, 4-Cyclohexyl-1-((4-methoxyphenyl)sulfonyl)-111-1,2,3-triazole], in assay [1] (1-25 μM), the “dose dependence of SG inhibition (in words)” value was “dose-dependent inhibition; also recorded: dose-dependent effects on SG formation”. Also, the EC50 in assay [1] (Homo sapiens, in situ, 1-25 μM, n=2, read-out: EC50 for induced SG inhibition) worked out at 8 µM. In assay [1] (Homo sapiens, p<0.001, read-out: concentration giving statistically significant decrease in SG formation), the minimal effective concentration was at least 12.5 µM. Further, the “effect on SG formation (in words)” value in assay [2] is reported as “lost”.
